EC50 data for 1 molecule are collected here from ChEMBL document CHEMBL6074675, “4-Substituted-2-Thiazole Amides as Viral Replication Inhibitors of Alphaviruses” (J Med Chem, 2024).

Structures are written as SMILES.

The assay relates to Chikungunya virus. The assay can be described thus: Antiviral activity against Chikungunya virus S27 infected in golden hamster BHK-21 cells assessed as inhibition of virus-induced cytopathic effect measured after 4 days by microscopic analysis. The assay is classed as functional, organism-based. The note with it: S27, BHK-21, 96 h.

For `O=C(CCN1CCOCC1)c1c(CO)c2ccccc2[nH]c1=O`, the concentration giving a half-maximal response (EC50) was 2200 nM.
